According to ChEMBL document CHEMBL4321850, “Targeting Aryl hydrocarbon receptor for next-generation immunotherapies: Selective modulators (SAhRMs) versus rapidly metabolized ligands (RMAhRLs)” (Eur J Med Chem, 2020):
Each block holds one compound with its values, some of them ahead of it.

Assays:
[1] = target: T1, Aryl hydrocarbon receptor (Homo sapiens, UniProt P35869); experiment: Displacement of [3H] 3-MC from AhR (unknown origin)
T1 sequence (P35869 whole entry): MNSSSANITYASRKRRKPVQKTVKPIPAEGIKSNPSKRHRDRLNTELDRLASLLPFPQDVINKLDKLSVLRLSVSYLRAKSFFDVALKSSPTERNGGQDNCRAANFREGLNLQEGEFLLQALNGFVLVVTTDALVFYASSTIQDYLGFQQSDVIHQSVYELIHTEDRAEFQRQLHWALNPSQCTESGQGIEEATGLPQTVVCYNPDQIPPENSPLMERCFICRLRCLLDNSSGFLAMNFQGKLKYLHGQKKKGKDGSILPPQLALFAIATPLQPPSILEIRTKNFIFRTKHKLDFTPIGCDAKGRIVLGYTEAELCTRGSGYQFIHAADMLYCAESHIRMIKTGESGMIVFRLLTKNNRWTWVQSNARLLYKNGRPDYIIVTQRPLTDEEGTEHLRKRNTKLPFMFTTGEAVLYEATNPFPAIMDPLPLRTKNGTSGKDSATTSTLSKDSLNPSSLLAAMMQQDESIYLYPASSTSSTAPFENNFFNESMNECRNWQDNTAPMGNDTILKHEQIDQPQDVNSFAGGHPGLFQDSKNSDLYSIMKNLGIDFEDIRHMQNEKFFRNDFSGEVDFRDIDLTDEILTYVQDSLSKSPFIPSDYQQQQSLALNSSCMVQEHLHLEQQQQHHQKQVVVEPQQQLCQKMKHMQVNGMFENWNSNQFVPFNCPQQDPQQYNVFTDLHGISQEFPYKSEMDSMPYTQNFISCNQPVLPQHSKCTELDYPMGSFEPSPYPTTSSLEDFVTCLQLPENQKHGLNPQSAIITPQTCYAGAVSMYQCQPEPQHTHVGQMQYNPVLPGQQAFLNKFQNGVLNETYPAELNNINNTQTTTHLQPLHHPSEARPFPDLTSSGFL

[2] = target: T2, Aryl hydrocarbon receptor (Mus musculus, UniProt P30561); experiment: Displacement of [3H]TCDD from mouse AhR
T2 sequence (P30561 whole entry): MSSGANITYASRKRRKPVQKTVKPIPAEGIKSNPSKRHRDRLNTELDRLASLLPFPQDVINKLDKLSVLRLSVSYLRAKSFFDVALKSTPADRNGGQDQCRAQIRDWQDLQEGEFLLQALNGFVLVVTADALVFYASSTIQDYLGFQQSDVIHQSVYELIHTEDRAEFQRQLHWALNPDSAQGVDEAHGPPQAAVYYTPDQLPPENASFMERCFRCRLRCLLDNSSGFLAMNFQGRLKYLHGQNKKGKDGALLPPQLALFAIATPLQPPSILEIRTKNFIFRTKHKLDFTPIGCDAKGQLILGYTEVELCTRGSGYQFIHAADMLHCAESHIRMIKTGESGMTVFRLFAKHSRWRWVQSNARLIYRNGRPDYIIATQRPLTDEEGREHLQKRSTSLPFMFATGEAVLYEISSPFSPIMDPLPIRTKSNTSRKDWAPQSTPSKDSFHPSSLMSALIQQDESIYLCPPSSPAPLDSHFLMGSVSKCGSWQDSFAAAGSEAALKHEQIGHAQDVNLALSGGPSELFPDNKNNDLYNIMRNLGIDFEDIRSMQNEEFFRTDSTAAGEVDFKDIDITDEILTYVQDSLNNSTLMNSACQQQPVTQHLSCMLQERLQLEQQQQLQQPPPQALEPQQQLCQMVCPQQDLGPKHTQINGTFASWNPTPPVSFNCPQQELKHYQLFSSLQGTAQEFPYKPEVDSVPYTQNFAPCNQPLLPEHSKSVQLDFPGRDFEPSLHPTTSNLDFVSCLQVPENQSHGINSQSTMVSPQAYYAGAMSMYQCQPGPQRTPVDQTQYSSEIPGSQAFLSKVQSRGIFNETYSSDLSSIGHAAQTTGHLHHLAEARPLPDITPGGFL

[3] = target: T2, Aryl hydrocarbon receptor; experiment: Displacement of 2-azido-3-[125I]7,8-dibromodibenzo-pdioxin from C57BL/6J mouse liver AhR incubated for 20 mins by gamma counting based autoradiography
[4] = target: T1, Aryl hydrocarbon receptor; experiment: Inhibition of AhR (unknown origin)
[5] = target: T2, Aryl hydrocarbon receptor; experiment: Displacement of 2-azido-3-[125I]7,8-dibromodibenzo-pdioxin from C57BL/6J mouse liver AhR
[6] = target: T2, Aryl hydrocarbon receptor; experiment: Displacement of 2-azido-3-[125I]7,8-dibromodibenzo-pdioxin from C57BL/6J mouse liver AhR relative to TCDD
[7] = target: T1, Aryl hydrocarbon receptor; experiment: Binding affinity to AhR (unknown origin) relative to TCDD
[8] = target: T1, Aryl hydrocarbon receptor; experiment: Binding affinity to AhR (unknown origin)

Structure (SMILES): COC(=O)c1csc(C(=O)c2c[nH]c3ccccc23)n1
Kd [2]: 3 nM

Structure (SMILES): COc1ccc(-c2cc(=O)c3ccc4ccccc4c3o2)cc1OC
IC50 [3]: 21 nM

Structure (SMILES): Nc1ccccc1C(=O)C[C@H](N)C(=O)O [L-KYNURENINE]
Ki [4]: 21600 nM

Structure (SMILES): c1ccc2c(Cc3c[nH]c4ccccc34)c[nH]c2c1 [ARUNDINE]
Kd [5]: 90 nM
EC50 [6]: 78000 nM

Structure (SMILES): Cc1cc(Cl)cc2c1oc1cc(Cl)cc(Cl)c12
EC50 [7]: 49 nM
Kd [8]: 0.13 nM

Second part, the compound after the results:

IC50 [1]: 2.6 nM
Structure (SMILES): O=c1c2cccc3cccc(c32)c2nc3ccc(Cl)cc3n12

IC50 [3]: 25 nM
Structure (SMILES): O=c1cc(-c2ccccc2)oc2c1ccc1ccccc12 [ALPHA-NAPHTHOFLAVONE]
